In patent US12281102B2, “Inhibitors of APOL1 and methods of using same” (Vertex Pharmaceuticals Incorporated, priority 2020, dated 2025):
Structures can show the parent of a compound that is named as a salt.

Target: T1, G1 APOL1 (Homo sapiens, UniProt O14791, I384M/S342G)
T1 construct: expressed in transfected cells
T1 sequence (O14791 28-398 S342G/I384M): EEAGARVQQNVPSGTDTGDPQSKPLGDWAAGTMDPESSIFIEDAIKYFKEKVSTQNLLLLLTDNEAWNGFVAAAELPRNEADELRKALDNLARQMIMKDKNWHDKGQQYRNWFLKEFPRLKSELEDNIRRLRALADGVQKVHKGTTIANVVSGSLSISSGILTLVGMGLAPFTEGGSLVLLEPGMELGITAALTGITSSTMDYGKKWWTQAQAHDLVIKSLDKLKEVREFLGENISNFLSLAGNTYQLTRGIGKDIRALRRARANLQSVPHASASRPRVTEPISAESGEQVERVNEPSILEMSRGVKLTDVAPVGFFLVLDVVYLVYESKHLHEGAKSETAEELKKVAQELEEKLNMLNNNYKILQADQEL
Test: Acute APOL1 Thallium Assay with inducible stable clones of HEK 293 cells
Assay type: cell-based
Details: HEK 293 T-Rex inducible stable clone expressing G1 APOL1; read-out: Thallium Assay (IC50)
From the text: Acute APOL1 Thallium Assay with Inducible Stable Clones of HEK 293 Cells
Apolipoprotein L1 (APOL1) proteins form potassium-permeable cation pores in the plasma membrane. APOL1 risk variants (G1 and G2) induce greater potassium flux than G0 in HEK293 cells. This assay exploits the permeability of thallium (T1+) through ligand-gated potassium channels. The dye produces a bright fluorescent signal upon binding to T1+ conducted through potassium channels. The intensity of the T1+ signal is proportional to the number of potassium channels in the open state. Therefore, it provides a functional indication of the potassium channel activities. During the initial dye-loading step, the T1+ indicator dye as an acetoxymethyl (AM) ester enters the cells through passive diffusion. Cytoplasm esterases cleave the AM ester and relieve its active thallium-sensitive form. The cells are then stimulated with T1+. The increase of fluorescence in the assay represents the influx of T1+ into the cell specifically through the potassium channel (i.e. through APOL1 pores), providing a functional measurement of potassium channel/pore activity. The Thallium assay is conducted with cells expressing G1 APOL1.
APOL1 Cell Line (HEK T-Rex Stable Inducible Cell Line)
• HEK T-Rex System • Tetracycline (Tet) inducible mammalian expression system. • Stably express the Tet repressor to regulate transcription. • Expression under the full-length CMV promoter. • APOL1 stable inducible cell line Clone used: G1 DC3.25 Tissue Culture Media Cell Culture Medium • DMEM+10% FBS+P/S+5 μg/mL blasticidin+1 μg/mL puromycin. • 500 mL DMEM+55 mL FBS+5 mL P/S+280 μL blasticidin S HCl (10 mg/mL)+56 μL puromycin (10 mg/mL). Cell Assay Medium • DMEM with 2% FBS+penicillin streptomycin. Reagents:
Instruments and Equipment • Nuaire cell culture hood, Cat. No. 540-600 • 37° C./5% CO2 incubator link to robotic arm, Liconic: STX110 • Molecular Devices FLIPR^Tetra High throughput cellular screening system, Cat. No. FT0324, Molecular Devices • ThermoFisher MultiDrop 384, Cat. No. 5840300 • Biotek Microfill, Cat. No. ASF1000A-4145 • BioRad TC10 cell counter, Cat. No. 145-0010 Assay Procedures Cells Scaled Up from Frozen Vials • APOL1 G1 3.25 (HEK293 T-Rex) frozen vials: 5 million cells per vial • Step 1, Day 1: Defrost frozen vial into T-225. • Step 2, Day 5: (when 85% confluent): Split one T-225 at 3×10^6 cells per flask. • Step 3, Day 8: Splits cells to set up for the assay plates as described below. Cell Culture
T-Rex APOL1 HEK cells are split twice per week to keep the confluence state below 85% of the culture flask surface area. Cells can be kept until passage 25.
• DMEM high glucose+10% FBS, +P/S, +5 μg/mL blasticidin, +1 μg/mL puromycin. • 500 mL DMEM, +55 mL FBS, +5 mL P/S, +280 μL blasticidin 10 mg/mL, +56 μL Puromycin 10 mg/mL. Assay Media • Opti-MEM reduced serum medium from Invitrogen. Day 1 Preparation of Cell Assay Plates • Culture medium is removed from the x cm^2 T-flask by aspiration. • The cell monolayer is rinsed with PBS 1× at room temperature. PBS is removed by aspiration. • Cells are trypsinized using Trypsin. • The flasks are incubated at room temperature for 2-3 minutes. • Complete DMEM medium is then added. Cell suspension is then transferred to a 50 mL Falcon polypropylene tube. • Cells are then counted using a BioRad TC10 cell counter and the required amount of cells are centrifuged at 1200 RPM for 5 minutes. Required amount is 1.3×10^6 cells/mL APOL1 T-Rex HEK cells. • The pellet is suspended in the assay medium. • Using the MultiDrop, add 20 μL to each well (corresponds to 26000 cells total per well) of a 384-well black, transparent, flat bottom Poly-D coated plate. • Tetracycline as prepared in the following section is added to the cells before plating to induce APOL1 expression. • Plates are left at room temperature for 20 to 30 minutes before incubation at 37° C. and 5% CO2. […]

IC50 [µM]	Compound
> 1	O=c1ccc2cc(S(=O)(=O)NC[C@H]3C[C@H](c4c(-c5ccc(F)cc5)[nH]c5c(F)cc(F)cc54)C3)ccc2[nH]1 [Compound 417]
0.25 to 1	CNC1(C(=O)N[C@H]2C[C@H](c3c(-c4ccc(F)cc4)[nH]c4c(F)cc(F)cc43)C2)CC1 [Compound 141]
> 1	Cn1nccc1CC(=O)N[C@H]1C[C@@H](c2c(-c3ccc(F)cc3)[nH]c3c(F)cc(F)cc32)C1 [Compound 49]
> 1	O=C(CC1(O)CCCCC1)N[C@H]1C[C@H](c2c(-c3ccc(F)cc3)[nH]c3c(F)cc(F)cc32)C1 [Compound 113]
< 0.25	O=C(NC[C@H]1C[C@H](c2c(-c3ccc(F)cc3)[nH]c3c(F)cc(F)cc32)C1)C1CCO1 (stereo partly drawn) [Compound 192]
> 1	O=C(Cc1ncccn1)NC[C@H]1C[C@H](c2c(-c3ccc(F)cc3)[nH]c3c(F)cc(F)cc32)C1 [Compound 248]
> 1	O=C1CC[C@H](C(=O)NC[C@H]2C[C@@H](c3c(-c4ccc(F)cc4)[nH]c4c(F)cc(F)cc43)C2)N1 [Compound 249]
< 0.25	O=C(CCO)N1CC(Cc2c(-c3ccc(F)cc3)[nH]c3c(F)cc(F)cc23)C1 [Compound 439]
> 1	N#CCC(=O)NC[C@H]1C[C@@H](c2c(-c3ccc(F)cc3)[nH]c3c(F)cc(F)cc32)C1 [Compound 230]
> 1	O=C1C[C@@H](C(=O)NC[C@H]2C[C@@H](c3c(-c4ccc(F)cc4)[nH]c4c(F)cc(F)cc43)C2)N1 [Compound 241]
> 1	Fc1ccc(-c2[nH]c3c(F)cc(F)cc3c2C2CC(CN[C@H]3CCOC3)C2)cc1 (stereo partly drawn) [Compound 398]
0.25 to 1	NC(=O)CNC(=O)N[C@H]1C[C@H](c2c(-c3ccc(F)cc3)[nH]c3c(F)cc(F)cc32)C1 [Compound 448, 2-(3-((1r,3r)-3-(5,7-difluoro-2-(4-fluorophenyl)-1H-indol-3-yl)cyclobutyl)ureido)acetamide]
> 1	CC(F)(F)C(=O)NC[C@H]1C[C@@H](c2c(-c3ccc(F)cc3)[nH]c3c(F)cc(F)cc32)C1 [Compound 266]
> 1	O=C(CC1(O)CCCCC1)N[C@H]1C[C@@H](c2c(-c3ccc(F)cc3)[nH]c3c(F)cc(F)cc32)C1 [Compound 47]
> 1	C[C@H](CO)NCC1CC(c2c(-c3ccc(F)cc3)[nH]c3c(F)cc(F)cc23)C1 (stereo partly drawn) [Compound 394]
> 1	O=C(CCN1CCCC1)N[C@H]1C[C@@H](c2c(-c3ccc(F)cc3)[nH]c3c(F)cc(F)cc32)C1 [Compound 44]
> 1	O=C(CCN1CCCCC1)N[C@H]1C[C@H](c2c(-c3ccc(F)cc3)[nH]c3c(F)cc(F)cc32)C1 [Compound 124]
> 1	CN(CC(=O)N[C@H]1C[C@@H](c2c(-c3ccc(F)cc3)[nH]c3c(F)cc(F)cc32)C1)S(C)(=O)=O [Compound 38]
< 0.25	CC[C@H](N)C(=O)NC[C@H]1C[C@H](c2c(-c3ccc(F)cc3)[nH]c3c(F)cc(F)cc32)C1 [Compound 197]
0.25 to 1	O=C(N1CC(Cc2c(-c3ccc(F)cc3)[nH]c3c(F)cc(F)cc23)C1)C1(CO)CC1 [Compound 437, [3-[[5,7-difluoro-2-(4-fluorophenyl)-1H-indol-3-yl]methyl]azetidin-1-yl]-[1-(hydroxymethyl)cyclopropyl]methanone (Trifluoroacetate salt)]
< 0.25	O=C(CCO)N[C@H]1C[C@H](c2c(-c3ccc(F)cc3)[nH]c3c(F)cc(F)cc32)C1 [Compound 95]

IC50 [µM]	Compound
> 1	NCC1CC(c2c(-c3ccc(C4CC4)cc3)[nH]c3ccc(F)cc23)C1 (stereo not drawn) [Compound 177]
> 1	Cc1ccc(C(=O)NC2CC(Cc3c(-c4ccc(F)cc4)[nH]c4c(F)cc(F)cc34)C2)[nH]1 (stereo not drawn) [Compound 172]
> 1	O=S(=O)(N[C@H]1C[C@H](c2c(-c3ccc(F)cc3)[nH]c3c(F)cc(F)cc32)C1)c1n[nH]c2ncccc12 [Compound 154]
> 1	O=C1NCCC1C(=O)NC1CC(Cc2c(-c3ccc(F)cc3)[nH]c3c(F)cc(F)cc23)C1 (stereo not drawn) [Compound 163]
0.25 to 1	CC(C)(O)C(=O)N[C@H]1C[C@@H](c2c(-c3ccc(F)cc3)[nH]c3c(F)cc(F)cc32)C1 [Compound 74]
> 1	O=C(CC1CC(=O)NC(=O)C1)NC[C@H]1C[C@@H](c2c(-c3ccc(F)cc3)[nH]c3c(F)cc(F)cc32)C1 [Compound 285]
< 0.25	CC(C)(C)OC(=O)N[C@@H](CO)C(=O)NC[C@H]1C[C@H](c2c(-c3ccc(F)cc3)[nH]c3c(F)cc(F)cc32)C1 [Compound 193]
> 1	CC(CC(=O)N[C@H]1C[C@@H](c2c(-c3ccc(F)cc3)[nH]c3c(F)cc(F)cc32)C1)N1CCOCC1 (mixture of isomers) [Compound 36]
> 1	Cn1nccc1CC(=O)NC[C@H]1C[C@@H](c2c(-c3ccc(F)cc3)[nH]c3c(F)cc(F)cc32)C1 [Compound 322]
> 1	O=C(NC[C@H]1C[C@H](c2c(-c3ccc(F)cc3)[nH]c3c(F)cc(F)cc32)C1)[C@H]1CCCN1 [Compound 282]
> 1	O=C(NC[C@H]1C[C@H](c2c(-c3ccc(F)cc3)[nH]c3c(F)cc(F)cc32)C1)[C@H]1C[C@@H](O)CN1 [Compound 275]
0.25 to 1	O=C(NC[C@H]1C[C@H](c2c(-c3ccc(F)cc3)[nH]c3c(F)cc(F)cc32)C1)[C@H]1NCC[C@@H]1O [Compound 222]
> 1	O=C1CC(C(=O)N[C@H]2C[C@@H](c3c(-c4ccc(F)cc4)[nH]c4c(F)cc(F)cc43)C2)CC(=O)N1 [Compound 70]
> 1	C[C@@H](O)[C@@H](CO)NCC1CC(c2c(-c3ccc(F)cc3)[nH]c3c(F)cc(F)cc23)C1 (stereo partly drawn) [Compound 408]
0.25 to 1	CC(=O)N[C@@H](C)C(=O)NC[C@H]1C[C@H](c2c(-c3ccc(F)cc3)[nH]c3c(F)cc(F)cc32)C1 [Compound 208]
> 1	O=C(NC[C@H]1C[C@H](c2c(-c3ccc(F)cc3)[nH]c3c(F)cc(F)cc32)C1)c1cn[nH]c1 [Compound 298]
> 1	O=S(=O)(N[C@H]1C[C@@H](c2c(-c3ccc(F)cc3)[nH]c3c(F)cc(F)cc32)C1)c1c[nH]cn1 [Compound 80]
> 1	Cn1ccc(CC(=O)N[C@H]2C[C@@H](c3c(-c4ccc(F)cc4)[nH]c4c(F)cc(F)cc43)C2)n1 [Compound 41]
0.25 to 1	NC1CC(c2c(-c3ccc(C4CC4)cc3)[nH]c3ccc(F)cc23)C1 (stereo not drawn) [Compound 7, 3-[2-(4-cyclopropylphenyl)-5-fluoro-1H-indol-3-yl]cyclobutanamine]
< 0.25	N#CCC(=O)N[C@H]1C[C@H](c2c(-c3ccc(F)cc3)[nH]c3c(F)cc(F)cc32)C1 [Compound 129]
> 1	O=C(CCN1CCCC1=O)N[C@H]1C[C@@H](c2c(-c3ccc(F)cc3)[nH]c3c(F)cc(F)cc32)C1 [Compound 48]
